From ChEMBL document CHEMBL1153753, “Structure-activity relationships and mechanism of action of antitumor bis 8-hydroxyquinoline substituted benzylamines” (Eur J Med Chem, 2010)
Activity calls are given as the source filed them. The calls are words filed in the database; no cut-off is given here.

What was measured:
[1] = Antiproliferative activity against human U87 cells expressing GFP after 3 days by flash-cytometry; format: functional, U-87MG ATCC; conditions: U-87 MG, 72 h, read-out: ED50 (the source's name)
U-87MG ATCC [2] = test: Antiproliferative activity against human U87 cells expressing GFP assessed as reduction in cell density at 20 uM by flash-cytometry; format: functional, cell-based
[3] = Disregulation of endoplasmic reticulum stress responsive gene expression in human U87 cells assessed as change in Chop mRNA level at 0.5 uM after 16 hrs by microarray analysis relative to untreated control; format: functional, cell-based; conditions: U-87MG ATCC
[4] = Disregulation of endoplasmic reticulum stress responsive gene expression in human U87 cells assessed as change in PUMA mRNA level at 0.5 uM after 16 hrs by microarray analysis relative to untreated control; format: functional, cell-based; conditions: U-87MG ATCC
[5] = Disregulation of endoplasmic reticulum stress responsive gene expression in human U87 cells assessed as change in ARN1 mRNA level at 0.5 uM after 16 hrs by microarray analysis relative to untreated control; format: functional, cell-based; conditions: U-87MG ATCC
[6] = Disregulation of DNA-damage and oxidative stress responsive gene expression in human U87 cells assessed as change in SESN2 mRNA level at 0.5 uM after 3 hrs by microarray analysis relative to untreated control; format: functional, U-87MG ATCC
[7] = Disregulation of DNA-damage and oxidative stress responsive gene expression in human U87 cells assessed as change in GADD45A mRNA level at 0.5 uM after 16 hrs by microarray analysis relative to untreated control; format: functional, U-87MG ATCC
[8] = Disregulation of DNA-damage and oxidative stress responsive gene expression in human U87 cells assessed as change in DDIT4 mRNA level at 0.5 uM after 16 hrs by microarray analysis relative to untreated control; format: functional, U-87MG ATCC
[9] = Disregulation of inflammation related gene expression in human U87 cells assessed as change in IL6 mRNA level at 0.5 uM after 16 hrs by microarray analysis relative to untreated control; format: functional, cell-based; conditions: U-87MG ATCC
[10] = Disregulation of inflammation related gene expression in human U87 cells assessed as change in IL1F5 mRNA level at 0.5 uM after 16 hrs by microarray analysis relative to untreated control; format: functional, cell-based; conditions: U-87MG ATCC
[11] = Disregulation of inflammation related gene expression in human U87 cells assessed as change in EREG mRNA level at 0.5 uM after 3 hrs by microarray analysis relative to untreated control; format: functional, cell-based; conditions: U-87MG ATCC
[12] = Disregulation of inflammation related gene expression in human U87 cells assessed as change in IFRD1 mRNA level at 0.5 uM after 16 hrs by microarray analysis relative to untreated control; format: functional, cell-based; conditions: U-87MG ATCC
[13] = Disregulation of inflammation related gene expression in human U87 cells assessed as change in CCL17 mRNA level at 0.5 uM after 3 hrs by microarray analysis relative to untreated control; format: functional, cell-based; conditions: U-87MG ATCC
[14] = Disregulation of inflammation related gene expression in human U87 cells assessed as change in CXCL3 mRNA level at 0.5 uM after 16 hrs by microarray analysis relative to untreated control; format: functional, cell-based; conditions: U-87MG ATCC
[15] = Disregulation of apoptosis related gene expression in human U87 cells assessed as change in NOXA mRNA level at 0.5 uM after 3 hrs by microarray analysis relative to untreated control; format: functional, cell-based; conditions: U-87MG ATCC
[16] = Disregulation of apoptosis related gene expression in human U87 cells assessed as change in BIM mRNA level at 0.5 uM after 16 hrs by microarray analysis relative to untreated control; format: functional, cell-based; conditions: U-87MG ATCC
[17] = Disregulation of apoptosis related gene expression in human U87 cells assessed as change in FAS mRNA level at 0.5 uM after 16 hrs by microarray analysis relative to untreated control; format: functional, cell-based; conditions: U-87MG ATCC
[18] = Disregulation of apoptosis related gene expression in human U87 cells assessed as change in GDF15 mRNA level at 0.5 uM after 16 hrs by microarray analysis relative to untreated control; format: functional, cell-based; conditions: U-87MG ATCC
[19] = Disregulation of apoptosis related gene expression in human U87 cells assessed as change in E2F1 mRNA level at 0.5 uM after 16 hrs by microarray analysis relative to untreated control; format: functional, cell-based; conditions: U-87MG ATCC
[20] = Disregulation of cell survival related gene expression in human U87 cells assessed as change in BCL2L10 mRNA level at 0.5 uM after 16 hrs by microarray analysis relative to untreated control; format: functional, cell-based; conditions: U-87MG ATCC
[21] = Disregulation of cell survival related gene expression in human U87 cells assessed as change in FGF18 mRNA level at 0.5 uM after 16 hrs by microarray analysis relative to untreated control; format: functional, cell-based; conditions: U-87MG ATCC
[22] = Disregulation of cell cycle related gene expression in human U87 cells assessed as change in cyclin D mRNA level at 0.5 uM after 16 hrs by microarray analysis relative to untreated control; format: functional, cell-based; conditions: U-87MG ATCC
[23] = Disregulation of cell cycle related gene expression in human U87 cells assessed as change in CCPG1 mRNA level at 0.5 uM after 16 hrs by microarray analysis relative to untreated control; format: functional, cell-based; conditions: U-87MG ATCC
[24] = Disregulation of cell cycle related gene expression in human U87 cells assessed as change in CDK2 mRNA level at 0.5 uM after 16 hrs by microarray analysis relative to untreated control; format: functional, cell-based; conditions: U-87MG ATCC
[25] = Disregulation of cell cycle related gene expression in human U87 cells assessed as change in cyclin F mRNA level at 0.5 uM after 16 hrs by microarray analysis relative to untreated control; format: functional, cell-based; conditions: U-87MG ATCC
[26] = Disregulation of cell cycle related gene expression in human U87 cells assessed as change in CDC6 mRNA level at 0.5 uM after 16 hrs by microarray analysis relative to untreated control; format: functional, cell-based; conditions: U-87MG ATCC
[27] = Disregulation of cell cycle related gene expression in human U87 cells assessed as change in CDC25A mRNA level at 0.5 uM after 16 hrs by microarray analysis relative to untreated control; format: functional, cell-based; conditions: U-87MG ATCC
[28] = Disregulation of cell cycle related gene expression in human U87 cells assessed as change in cyclin E2 mRNA level at 0.5 uM after 16 hrs by microarray analysis relative to untreated control; format: functional, cell-based; conditions: U-87MG ATCC
[29] = Disregulation of cell cycle related gene expression in human U87 cells assessed as change in EDN1 mRNA level at 0.5 uM after 3 hrs by microarray analysis relative to untreated control; format: functional, cell-based; conditions: U-87MG ATCC
[30] = Disregulation of cell cycle related gene expression in human U87 cells assessed as change in CDCA7 mRNA level at 0.5 uM after 16 hrs by microarray analysis relative to untreated control; format: functional, cell-based; conditions: U-87MG ATCC
[31] = Disregulation of cell development related gene expression in human U87 cells assessed as change in PRPX1 mRNA level at 0.5 uM after 16 hrs by microarray analysis relative to untreated control; format: functional, cell-based; conditions: U-87MG ATCC
[32] = Disregulation of cell development related gene expression in human U87 cells assessed as change in HOXA6 mRNA level at 0.5 uM after 16 hrs by microarray analysis relative to untreated control; format: functional, cell-based; conditions: U-87MG ATCC
[33] = Disregulation of cell development related gene expression in human U87 cells assessed as change in ISL2 mRNA level at 0.5 uM after 16 hrs by microarray analysis relative to untreated control; format: functional, cell-based; conditions: U-87MG ATCC
U-87MG ATCC [34] = test: Antiproliferative activity against human U87 cells expressing GFP assessed as apparent cell death at 20 uM after 3 days by flash-cytometry; format: functional, cell-based
[35] = Disregulation of inflammation related gene expression in human U87 cells assessed as change in IL1A mRNA level at 0.5 uM after 16 hrs by microarray analysis relative to untreated control; format: functional, cell-based; conditions: U-87MG ATCC

For `Cc1ccc(CN(Cc2ccc(O)c3ncccc23)Cc2ccc(O)c3ncccc23)cc1`, the EC50 [1] was under 200 nM, the Activity (U-87MG ATCC [2]) was “Active” and the fold change (FC) [3] was 3. The fold change (FC) [4] was 3, the fold change (FC) [5] was 3 and the “fold change (FC)” value [6] was over 1.4. For the same molecule, the “fold change (FC)” value [7] was 3, the “fold change (FC)” value [8] was 3 and the fold change (FC) [9] was 3. It also gave a fold change (FC) [10] of 3, a fold change (FC) [11] of over 1.4 and a fold change (FC) [12] of 3. It also gave a fold change (FC) [13] of over 1.4, a fold change (FC) [14] of 3 and a fold change (FC) [15] of over 1.4. It also gave a fold change (FC) [16] of 3, a fold change (FC) [17] of 3 and a fold change (FC) [18] of 3. For the same molecule, the fold change (FC) [19] was 3, the fold change (FC) [20] was 3 and the fold change (FC) [21] was 3. It also gave a fold change (FC) [22] of 3, a fold change (FC) [23] of 3 and a fold change (FC) [24] of 3. The fold change (FC) [25] was 3, the fold change (FC) [26] was 3 and the fold change (FC) [27] was 3. It also gave a fold change (FC) [28] of 3, a fold change (FC) [29] of over 1.4 and a fold change (FC) [30] of 3. It also gave a fold change (FC) [31] of 3, a fold change (FC) [32] of 3 and a fold change (FC) [33] of 3. The Activity (U-87MG ATCC [34]) was “inactive” and the Activity [35] was “Active”.
